For data set [1] the following is noted: mice; cited from earlier work.
Data set [2] is described as follows: Apical-to-basal transwell transport across MDCK II cell monolayer. The following applies: dog, MDCK.
In the next data set the test system is MDCK II cells. The data set is described as above.
The next data set deals with P-glycoprotein (PGP). Described as above. Conditions: dog, MDCK, M6G permeability in the presence of cyclosporine, MDCK II cells, cyclosporine (10 µM), PGP inhibitor.

`CN1CC[C@]23c4c5ccc(O)c4O[C@H]2[C@@H](O[C@@H]2O[C@H](C(=O)O)[C@@H](O)[C@H](O)[C@H]2O)C=C[C@H]3[C@H]1C5` [M6G, Morphine-6-glucuronide]: in data set [1], the “Change of M6G brain uptake in the presence of digoxin” value is “threefold reduction”. Moreover, the apparent permeability (Papp) (as a rule, the rate of passage across a membrane or cell layer, normalised by area and donor concentration) at 100 min is 2.06 ± 0.02 ×10⁻⁶ cm/s in data set [2] (M6G permeability in the presence of d-glucose, d-glucose 5µ M, MDCK II, P < 0.05); 2.64 ± 0.11 ×10⁻⁶ cm/s in data set [2] (M6G permeability in the presence of digoxin, digoxin 5µ M, MDCK II, P < 0.05); 2.95 ± 0.06 ×10⁻⁶ cm/s in data set [2] (M6G permeability in the presence of probenecid, probenecid 10µ M, MDCK II, P > 0.05); 2.94 ± 0.03 ×10⁻⁶ cm/s in data set [2] (Permeability, MDCK II cells, A→B, 100 min, M6G 100 µg/ml, sucrose 8,000,000 DPM/ml, N=4); 3.16 ± 0.01 ×10⁻⁶ cm/s with P-glycoprotein (PGP). For the same compound, the Papp at 100 min, 100 µg/ml in data set [2] (Permeability ± SD in the presence of morphine, M6G 100 µg/ml + morphine 61,820 ng/ml, MDCK II) amounted to 3.31 ± 0.14 ×10⁻⁶ cm/s; in data set [2] (Permeability ± SD, M6G 100 µg/ml alone, MDCK II), 2.92 ± 0.02 ×10⁻⁶ cm/s. In addition, the “M6G apical to basal movement relative to morphine (times lower)” value in the data set with MDCK II cells (morphine value from earlier paper) is 10 times. For the same compound, the “Morphine in apical and basal chambers (de-glucuronidation of M6G)” value with MDCK II cells (t= 100 min, sensitive morphine assay) is “not a significant or detectable morphine”.

Values taken from publication PMC3436077 (DARU Journal of Pharmaceutical Sciences, 2011).
